Laboratory results reported in patent US12262712B2, “Oxime ether compound and application thereof” (SHENYANG SINOCHEM AGROCHEMICALS R&D CO., LTD., priority 2019, dated 2025).

Legend:
[1] = test system: soft rot of Chinese cabbage; experiment: Control effect on soft rot of Chinese cabbage (leaf piece, spray, needle wound inoculation); assay type: in vivo, soft rot bacteria of Chinese cabbage; details: 400 mg/L, sprayed on leaf, 48 hours in the dark
Source text: (§1) The compounds of the present invention are used to determine the control effect on various plant bacterial diseases. For different bacterial diseases, the test procedures are as follows:
Soft rot of Chinese cabbage: 2 cm of square Chinese cabbage leaf is cut and placed in a glass petri dish lined with double-layer filter paper. A compound dissolved in N,N dimethylformamide and diluted with water to a required concentration is sprayed onto the surface of the Chinese cabbage leaf. After the medicinal liquid on the surface of the Chinese cabbage leaf is dried in a fume hood, the surface of the Chinese cabbage leaf is acupunctured by using an inoculating needle to cause a wound. […] of soft rot bacteria of Chinese cabbage cultured to a stable growth period is added to the wound for inoculation. Finally, the test materials are placed in an incubator and cultured for 48 hours in the dark; and the control effect is investigated after full onset of diseases through control.

[2] = test system: melon bacterial fruit blotch; experiment: Control effect on melon bacterial fruit blotch (seed soak, greenhouse); assay type: in vivo; details: 400 mg/L, seeds soaked in bacteria plus compound solution
Procedure: as §1
Melon bacterial fruit blotch: the compound to be tested is dissolved with a small amount of N,N dimethylformamide and diluted with water to the required concentration. The pathogenic bacteria cultured to a stable growth stage is evenly mixed with a quantitative compound solution; the germinated melon seeds are soaked in the mixed solution of a bacteria solution and the compound for half an hour; then, the seeds are sown in an earthworm soil culture cup and put into a greenhouse for moisturizing cultivation for two weeks generally; and the control effect is investigated after full onset of diseases through control.

[3] = test system: cucumber downy mildew; experiment: In vivo pot determination, control effect on cucumber downy mildew; details: 400 ppm, foliar spray, parallel comparison (Table 4)
Procedure: (§2) An in vivo pot determination method was adopted, i.e., a sample of the compound to be tested was dissolved with a small amount of solvent (the type of the solvent may be, for example, acetone, methanol and DMF, and selected according to the capability to dissolve the sample; the volume ratio of the amount of the solvent to the amount of sprayed solution is equal to or less than 0.05), diluted with water containing 0.1% Tween 80 and formulated into a required concentration of solution to be tested. Foliar spray treatment was carried out with the compounds of the present invention at the designed concentrations. A blank control with clear water spray was set and repeated for three times. Disease inoculation was carried out on the second day after the treatment. After inoculation, the plants were placed in a phytotron for moisturizing cultivation (temperature: 25° C. on day, 20° C. at night, relative humidity 95-99%). […] After the control was fully diseased (generally one week), the control effects of the compounds were evaluated. For the result survey, A Manual of Assessment Keys for Plant Diseases compiled by American Phytopathological Society can be referred to, which uses 100-0 for representation. “100” level represents no disease and “0” level represents the most severe disease degree.

[4] = test system: bacterial spot of cucumber (Pseudomonas syringae pv. lachrymans); experiment: Field trial, control of bacterial spot of cucumber; assay type: in vivo; details: whole plant spray three times at 7 day interval, investigated 7 days after last delivery
Procedure: Compounds 47 and 97 were selected from the above compounds for field trial to control bacterial spot of cucumber (Pseudomonas syringae pv. lachrymans). The treatment dose of the test drug was 400 mg/L, and the treatment dose of a control drug CK2 was 700 mg/L. The test drug and the control drug were arranged in random blocks; the plot area was 15 m^2; and repetition was conducted for 3 times. The drug delivery mode was the whole plant spray. Drug delivery was conducted for three times, with an interval of 7 days, and control effect investigation was carried out 7 days after the last drug delivery. During investigation, 5 points in each plot were sampled; all leaves were investigated; and disease indexes and control effects were calculated according to the percentage level of diseased spot area of each leaf in the whole leaf area.

[5] = test system: soybean rust; experiment: In vivo pot determination, control effect on soybean rust; details: foliar spray
Procedure: as §2

Row | Compound | control effects on soft rot of Chinese cabbage [1] | control effects on melon bacterial fruit blotch [2] | further results
1 | CC(C)(C)OC(=O)Nc1nc(CON=C(C#N)C(N)=O)cs1 [Compound 253] | 100% | 100% | 
2 | N#CC(C#N)=NOCc1csc(-c2ccccc2)n1 [CK2, reference compound] |  |  | Control Effects on Cucumber Downy Mildew (%) [3]: 0%; Control Effect (%) ([4]; active ingredient dose 700 mg/L): 76.89%
3 | N#CC(C#N)=NOCc1csc(NC(=O)c2ccc(F)c(F)c2)n1 [Compound 87] | 100% | 100% | 
4 | N#CC(C#N)=NOCc1csc(NC(=O)c2ccccc2C(F)(F)F)n1 [Compound 20] | 100% | 100% | Control Effects on Cucumber Downy Mildew (%) [3]: 100%
5 | N#CC(C#N)=NOCc1csc(NC(=O)c2ccc(F)c(C(F)(F)F)c2)n1 [Compound 74] | 100% | 100% | 
6 | N#CC(C#N)=NOCc1csc(NC(=O)c2ccc([N+](=O)[O-])c(F)c2)n1 [Compound 45] | 100% | 100% | Control Effects on Cucumber Downy Mildew (%) [3]: 100%
7 | N#CC(C#N)=NOCc1csc(NC(=O)c2ccccc2F)n1 [Compound 5] | 100% | 100% | 
8 | N#CC(=NOCc1csc(N)n1)C(N)=O [Compound 179] | 100% | 100% | Control Effects on Soybean Rust (%) ([5]; 100 ppm): 80%; Control Effects on Soybean Rust (%) ([5]; 200 ppm): 100%
9 | N#CC(C#N)=NOCc1csc(NC(=O)c2ccc(Br)cc2)n1 [Compound 10] |  |  | Control Effects on Soybean Rust (%) ([5]; 100 ppm): 100%; Control Effects on Soybean Rust (%) ([5]; 200 ppm): 100%
10 | N#CC(C#N)=NOCc1csc(NC(=O)c2cccc(F)c2)n1 [Compound 6] | 100% | 100% | 
11 | N#CC(C#N)=NOCc1csc(NC(=O)c2ccc(C(F)(F)F)cc2)n1 [Compound 22] | 100% | 100% | 
12 | N#CC(C#N)=NOCc1csc(NC(=O)c2ccc(F)cc2F)n1 [Compound 86] | 100% | 100% | 
13 | N#CC(C#N)=NOCc1csc(NC(=O)c2ccc(Cl)cc2)n1 [Compound 4] | 100% | 100% | 
14 | CC(C)(C)OC(=O)Nc1nc(CON=C(C#N)C#N)cs1 [Compound 123] | 100% | 100% | 
15 | N#CC(C#N)=NOCc1csc(NC(=O)c2cccnc2)n1 [Compound 65] | 100% | 100% | 
16 | N#CC(C#N)=NOCc1csc(NC(=O)c2ccc(Cl)cc2Cl)n1 [Compound 34] | 100% | 100% | 

Row | Compound | control effects on soft rot of Chinese cabbage [1] | control effects on melon bacterial fruit blotch [2] | further results
17 | CC=CC(=O)Nc1nc(CON=C(C#N)C#N)cs1 [Compound 117] | 100% | 100% | Control Effects on Cucumber Downy Mildew (%) [3]: 100%
18 | N#CC(C#N)=NOCc1csc(N)n1 [Compound 47, ((2-aminothiazole-4-yl)methoxy)iminoimide dicyanide] | 100% | 100% | Control Effects on Soybean Rust (%) ([5]; 100 ppm): 85%; Control Effects on Soybean Rust (%) ([5]; 200 ppm): 100%; Control Effect (%) ([4]; active ingredient dose 400 mg/L): 77.00%
19 | N#CC(C#N)=NOCc1csc(NC(=O)c2ccc3c(c2)OC(F)(F)O3)n1 [Compound 366] | 100% | 100% | 
20 | N#CC(C#N)=NOCc1csc(-c2ccc(Cl)cc2)n1 [CK3, reference compound] |  |  | Control Effects on Cucumber Downy Mildew (%) [3]: 0%
21 | CCC(=O)Nc1nc(CON=C(C#N)C#N)cs1 [Compound 118] | 100% | 100% | 
22 | N#CC(C#N)=NOCc1csc(NN=C(c2ccc(Cl)cc2)c2ccc(Cl)cc2)n1 [Compound 367] | 100% | 100% | 
23 | N#CC(C#N)=NOCc1csc(NC(=O)c2ccc(Cl)c(Cl)c2)n1 [Compound 36] | 100% | 100% | 
24 | N#CC(C#N)=NOCc1csc(NC(=O)C(F)(F)F)n1 [Compound 119] | 100% | 100% | 
25 | CCc1ccc(C(=O)Nc2nc(CON=C(C#N)C#N)cs2)cc1 [Compound 365] |  |  | Control Effects on Soybean Rust (%) ([5]; 100 ppm): 100%; Control Effects on Soybean Rust (%) ([5]; 200 ppm): 100%
26 | N#CC(C#N)=NOCc1csc(NC(=O)c2ccccc2)n1 [Compound 95] | 100% | 100% | 
27 | N#CC(C#N)=NOCc1csc(NC(=O)c2ccccc2OC(F)(F)F)n1 [Compound 23] | 100% | 100% | Control Effects on Soybean Rust (%) ([5]; 100 ppm): 100%; Control Effects on Soybean Rust (%) ([5]; 200 ppm): 100%
28 | Cc1ccc(S(=O)(=O)Nc2nc(CON=C(C#N)C(N)=O)cs2)cc1 [Compound 228] | 100% | 100% | 
29 | N#CC(C#N)=NOCc1cnc(Cl)s1 [CK1, reference compound] |  |  | Control Effects on Soybean Rust (%) ([5]; 100 ppm): 0%; Control Effects on Soybean Rust (%) ([5]; 200 ppm): 0%; Control Effects on Cucumber Downy Mildew (%) [3]: 0%
30 | CC(=NNc1nc(CON=C(C#N)C#N)cs1)c1ccc(F)cc1 [Compound 361] | 100% | 100% | 
31 | N#CC(=NOCc1csc(NC(=O)c2ccccc2Cl)n1)C(N)=O [Compound 134] | 100% | 100% | 
